Experimental data published in patent US10472341B2, “Bicyclic tetrahydrothiazepine derivatives useful for the treatment of neoplastic and/or infectious diseases” (APEIRON BIOLOGICS AG, priority 2015, dated 2019).
Like-named read-outs stand apart in the source and are kept apart here.

Tests used:
[1] = test system: aCD3/aCD28-stimulated human CD4+-T-cells; experiment: IL-2 production and activation markers in aCD3/aCD28 stimulated isolated human CD4+-T-cells; assay type: cell-based; conditions: IL-2 production at 3 μM compound
Method in brief: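 CD4+ T cells isolated from buffy-coat PBMCs by microbeads were plated in Xvivo medium (1.5*10^5 cells/well) and stimulated with anti-CD3/28 mAbs plus compound. IL-2 measured by ELISA in supernatants at 24 h or 48 h; CD25 and proliferation by flow cytometry, CD69 at 24 h. Activity classes based on IL-2 at 3 μM compound.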

[2] = test system: aCD3/aCD28-stimulated human PBMCs; experiment: Cytokine production in aCD3/aCD28 stimulated human PBMCs; assay type: cell-based; conditions: PBMC, 18 h
Method in brief: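 Ficoll-isolated human PBMCs at 1e6 cells/mL in X-Vivo15, stimulated with soluble anti-CD3/CD28 (OKT3 and 28.2, 1 μg/mL each) plus compound for 18 h at 37° C. Supernatant cytokines quantified by MSD or HTRF.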

[3] = enhancement of IFN-γ production, read-out: Activity Class IFN-γ
[4] = enhancement of IL-2 production, read-out: Activity Class IL-2

## Cl.N[C@H]1CSc2ccc(C(=O)NC3CCC(F)(F)CC3)cc2N(Cc2ccc(Cl)cc2)C1=O [Example 33, (3R)-3-amino-5-[(4-chlorophenyl)methyl]-N-(4,4-difluorocyclohexyl)-4-oxo-2,3,4,5-tetrahydro-1,5-benzothiazepine-7-carboxamide hydrochloride]
[1]
  Activity Class CD4+: B (IL-2 production at 3 μM compound concentration between 2-10 ng/mL)
[2]; [3]
  EC50: < 1.58 µM
[2]; [4]
  EC50: 1.58 to 5.01 µM

## CC(NC(=O)c1ccc2c(c1)N(Cc1ccc(Cl)cc1)C(=O)[C@@H](N)CS2)c1ccc(F)cc1.Cl (stereo partly drawn) [Example 34, (3R)-3-amino-5-[(4-chlorophenyl)methyl]-N-[1-(4-fluorophenyl)ethyl]-4-oxo-2,3,4,5-tetrahydro-1,5-benzothiazepine-7-carboxamide hydrochloride]
[1]
  Activity Class CD4+: C (IL-2 production at 3 μM compound concentration between 2-fold increase as compared to mean IL-2 production of stimulated cells in the absence of compounds and <2 ng/mL)
[2]; [3]
  EC50: 1.58 to 5.01 µM
[2]; [4]
  EC50: 1.58 to 5.01 µM

## COc1ccc([C@H](C)NC(=O)c2ccc3c(c2)N(Cc2ccc(Cl)cc2)C(=O)[C@@H](N)CS3)cc1 [Example 35, (3R)-3-amino-5-[(4-chlorophenyl)methyl]-N-[(1S)-1-(4-methoxyphenyl)ethyl]-4-oxo-2,3,4,5-tetrahydro-1,5-benzothiazepine-7-carboxamide]
[1]
  Activity Class CD4+: C (IL-2 production at 3 μM compound concentration between 2-fold increase as compared to mean IL-2 production of stimulated cells in the absence of compounds and <2 ng/mL)
[2]; [3]
  EC50: > 5.01 µM
[2]; [4]
  EC50: > 5.01 µM

## Cl.N[C@H]1CSc2ccc(C(=O)NCCCC(F)(F)F)cc2N(Cc2ccc(C(F)(F)F)nc2)C1=O [Example 36, (3R)-3-amino-4-oxo-N-(4,4,4-trifluorobutyl)-5-{[6-(trifluoromethyl)pyridin-3-yl]methyl}-2,3,4,5-tetrahydro-1,5-benzothiazepine-7-carboxamide hydrochloride]
[1]
  Activity Class CD4+: C (IL-2 production at 3 μM compound concentration between 2-fold increase as compared to mean IL-2 production of stimulated cells in the absence of compounds and <2 ng/mL)
[2]; [3]
  EC50: < 1.58 µM
[2]; [4]
  EC50: > 5.01 µM

## Cl.N[C@H]1CSc2ccc(C(=O)NCc3ccc(F)cc3)cc2N(Cc2ccc(C(F)(F)F)nc2)C1=O [Example 37, (3R)-3-amino-N-[(4-fluorophenyl)methyl]-4-oxo-5-{[6-(trifluoromethyl)pyridin-3-yl]methyl}-2,3,4,5-tetrahydro-1,5-benzothiazepine-7-carboxamide hydrochloride]
[1]
  Activity Class CD4+: C (IL-2 production at 3 μM compound concentration between 2-fold increase as compared to mean IL-2 production of stimulated cells in the absence of compounds and <2 ng/mL)
[2]; [3]
  EC50: > 5.01 µM
[2]; [4]
  EC50: 1.58 to 5.01 µM

## C[C@@H](NC(=O)c1ccc2c(c1)N(Cc1ccc(Cl)cc1)C(=O)[C@@H](N)CS2)c1ccc(F)cc1.Cl [Example 38, (3R)-3-amino-5-[(4-chlorophenyl)methyl]-N-[(1R)-1-(4-fluorophenyl)ethyl]-4-oxo-2,3,4,5-tetrahydro-1,5-benzothiazepine-7-carboxamide hydrochloride]
[1]
  Activity Class CD4+: C (IL-2 production at 3 μM compound concentration between 2-fold increase as compared to mean IL-2 production of stimulated cells in the absence of compounds and <2 ng/mL)
[2]; [3]
  EC50: 1.58 to 5.01 µM
[2]; [4]
  EC50: 1.58 to 5.01 µM

## Cl.N[C@H]1CSc2cc(F)c(C(=O)NCc3ccc(F)cc3)cc2N(Cc2ccc(Cl)cc2)C1=O [Example 39, (3R)-3-amino-5-[(4-chlorophenyl)methyl]-8-fluoro-N-[(4-fluorophenyl)methyl]-4-oxo-2,3,4,5-tetrahydro-1,5-benzothiazepine-7-carboxamide hydrochloride]
[1]
  Activity Class CD4+: B (IL-2 production at 3 μM compound concentration between 2-10 ng/mL)
[2]; [3]
  EC50: < 1.58 µM
[2]; [4]
  EC50: 1.58 to 5.01 µM

## CCCCNC(=O)c1cc2c(cc1F)SC[C@H](N)C(=O)N2Cc1ccc(Cl)cc1.Cl [Example 41, (3R)-3-amino-N-butyl-5-[(4-chlorophenyl)methyl]-8-fluoro-4-oxo-2,3,4,5-tetrahydro-1,5-benzothiazepine-7-carboxamide hydrochloride]
[1]
  Activity Class CD4+: C (IL-2 production at 3 μM compound concentration between 2-fold increase as compared to mean IL-2 production of stimulated cells in the absence of compounds and <2 ng/mL)
[2]; [3]
  EC50: < 1.58 µM
[2]; [4]
  EC50: 1.58 to 5.01 µM

## Cl.N[C@H]1CSc2cc(F)c(C(=O)NCC3CCOCC3)cc2N(Cc2ccc(Cl)cc2)C1=O [Example 42, (3R)-3-amino-5-[(4-chlorophenyl)methyl]-8-fluoro-N-(oxan-4-ylmethyl)-4-oxo-2,3,4,5-tetrahydro-1,5-benzothiazepine-7-carboxamide hydrochloride]
[1]
  Activity Class CD4+: C (IL-2 production at 3 μM compound concentration between 2-fold increase as compared to mean IL-2 production of stimulated cells in the absence of compounds and <2 ng/mL)
[2]; [3]
  EC50: 1.58 to 5.01 µM
[2]; [4]
  EC50: > 5.01 µM

## COc1ccc(CNC(=O)c2cc3c(cc2F)SC[C@H](N)C(=O)N3Cc2ccc(Cl)cc2)cc1.Cl [Example 43, (3R)-3-amino-5-[(4-chlorophenyl)methyl]-8-fluoro-N-[(4-methoxyphenyl)methyl]-4-oxo-2,3,4,5-tetrahydro-1,5-benzothiazepine-7-carboxamide hydrochloride]
[1]
  Activity Class CD4+: C (IL-2 production at 3 μM compound concentration between 2-fold increase as compared to mean IL-2 production of stimulated cells in the absence of compounds and <2 ng/mL)
[2]; [3]
  EC50: < 1.58 µM
[2]; [4]
  EC50: 1.58 to 5.01 µM

## Cc1nc(-c2ccc(CN3C(=O)[C@@H](N)CSc4ccc(C(=O)NCC5CCOCC5)cc43)cc2)no1.Cl [Example 44, (3R)-3-amino-5-{[4-(5-methyl-1,2,4-oxadiazol-3-yl)phenyl]methyl}-N-(oxan-4-ylmethyl)-4-oxo-2,3,4,5-tetrahydro-1,5-benzothiazepine-7-carboxamide hydrochloride]
[1]
  Activity Class CD4+: C (IL-2 production at 3 μM compound concentration between 2-fold increase as compared to mean IL-2 production of stimulated cells in the absence of compounds and <2 ng/mL)
[2]; [3]
  EC50: 1.58 to 5.01 µM
[2]; [4]
  EC50: > 5.01 µM

## CCCCNC(=O)c1ccc2c(c1)N(Cc1ccc(-n3cncn3)cc1)C(=O)[C@@H](N)CS2.Cl [Example 46, (3R)-3-amino-N-butyl-4-oxo-5-{[4-(1H-1,2,4-triazol-1-yl)phenyl]methyl}-2,3,4,5-tetrahydro-1,5-benzothiazepine-7-carboxamide hydrochloride]
[1]
  Activity Class CD4+: C (IL-2 production at 3 μM compound concentration between 2-fold increase as compared to mean IL-2 production of stimulated cells in the absence of compounds and <2 ng/mL)
[2]; [3]
  EC50: 1.58 to 5.01 µM
[2]; [4]
  EC50: > 5.01 µM

## CC(C)(O)CNC(=O)c1ccc2c(c1)N(Cc1ccc(Cl)cc1)C(=O)[C@@H](N)CS2 [Example 48, (3R)-3-amino-5-[(4-chlorophenyl)methyl]-N-(2-hydroxy-2-methylpropyl)-4-oxo-2,3,4,5-tetrahydro-1,5-benzothiazepine-7-carboxamide]
[1]
  Activity Class CD4+: C (IL-2 production at 3 μM compound concentration between 2-fold increase as compared to mean IL-2 production of stimulated cells in the absence of compounds and <2 ng/mL)
[2]; [3]
  EC50: 1.58 to 5.01 µM
[2]; [4]
  EC50: > 5.01 µM

## CC(C)(O)CNC(=O)c1cc2c(cc1F)SC[C@H](N)C(=O)N2Cc1ccc(Cl)cc1 [Example 50, (3R)-3-amino-5-[(4-chlorophenyl)methyl]-8-fluoro-N-(2-hydroxy-2-methylpropyl)-4-oxo-2,3,4,5-tetrahydro-1,5-benzothiazepine-7-carboxamide]
[1]
  Activity Class CD4+: C (IL-2 production at 3 μM compound concentration between 2-fold increase as compared to mean IL-2 production of stimulated cells in the absence of compounds and <2 ng/mL)
[2]; [3]
  EC50: 1.58 to 5.01 µM
[2]; [4]
  EC50: > 5.01 µM

## C[C@H]1Sc2ccc(C(=O)NCCCC(F)(F)F)cc2N(Cc2ccc(Cl)cc2)C(=O)[C@H]1N.Cl [Example 51, (2R,3R)-3-amino-5-[(4-chlorophenyl)methyl]-2-methyl-4-oxo-N-(4,4,4-trifluorobutyl)-2,3,4,5-tetrahydro-1,5-benzothiazepine-7-carboxamide hydrochloride]
[1]
  Activity Class CD4+: C (IL-2 production at 3 μM compound concentration between 2-fold increase as compared to mean IL-2 production of stimulated cells in the absence of compounds and <2 ng/mL)
[2]; [3]
  EC50: < 1.58 µM
[2]; [4]
  EC50: 1.58 to 5.01 µM

## CCCC(=O)NNC(=O)c1ccc2c(c1)N(Cc1ccc(Cl)cc1)C(=O)[C@@H](N)CS2.Cl [Example 53, (3R)-3-amino-N′-butanoyl-5-[(4-chlorophenyl)methyl]-4-oxo-2,3,4,5-tetrahydro-1,5-benzothiazepine-7-carbohydrazide hydrochloride]
[1]
  Activity Class CD4+: C (IL-2 production at 3 μM compound concentration between 2-fold increase as compared to mean IL-2 production of stimulated cells in the absence of compounds and <2 ng/mL)
[2]; [3]
  EC50: > 5.01 µM
[2]; [4]
  EC50: > 5.01 µM

## CCCCNC(=O)c1cc2c(cc1F)SC[C@H](N)C(=O)N2Cc1ccc(Cl)cc1F.Cl [Example 54, (3R)-3-amino-N-butyl-5-[(4-chloro-2-fluorophenyl)methyl]-8-fluoro-4-oxo-2,3,4,5-tetrahydro-1,5-benzothiazepine-7-carboxamide hydrochloride]
[1]
  Activity Class CD4+: B (IL-2 production at 3 μM compound concentration between 2-10 ng/mL)
[2]; [3]
  EC50: 1.58 to 5.01 µM
[2]; [4]
  EC50: 1.58 to 5.01 µM

## Cl.N[C@H]1CSc2cc(F)c(C(=O)NCC3CCOCC3)cc2N(Cc2ccc(Cl)cc2F)C1=O [Example 55, (3R)-3-amino-5-[(4-chloro-2-fluorophenyl)methyl]-8-fluoro-N-(oxan-4-ylmethyl)-4-oxo-2,3,4,5-tetrahydro-1,5-benzothiazepine-7-carboxamide hydrochloride]
[1]
  Activity Class CD4+: B (IL-2 production at 3 μM compound concentration between 2-10 ng/mL)
[2]; [3]
  EC50: 1.58 to 5.01 µM
[2]; [4]
  EC50: 1.58 to 5.01 µM
